# According to US10973780B2 (priority 2019, dated 2021):
# Structures can show the parent of a compound that is named as a salt. Where two headings read alike, the source gives them in different places.
# Columns and labels:
# [1] = pH of ketamine formulations and ketamine HCl solutions; type: physicochemical
# [2] = elevated pHs around 5.5; cited from earlier work
# [3] = rat, daily IV injections for 1 month; cited from earlier work
# [4] = cited from earlier work
# [5] = cited from earlier work; remark: listed apart in the source
# [6] = cited from earlier work; remark: listed apart in the source
# [7] = cited from earlier work; remark: listed apart in the source
# [8] = cited from earlier work; remark: listed apart in the source
# [9] = cited from earlier work; remark: listed apart in the source
compound,measurement,setting,value
"CNC1(c2ccccc2Cl)CCCCC1=O (centres unmarked) [ketamine HCl, ketamine hydrochloride]",pH,[1]; 100 mg/mL (ketamine freebase equivalent) in water,around 4
same,average pH,[1]; measured in USP bottles of ketamine 100 mg/mL,3.74
same,average pH,[1]; solutions formed from powdered ketamine HCl,3.93
same,precipitation,[2],exhibit precipitation
sulfobutyl-ether-beta-cyclodextrin [SBE-β-CD],NOEL,[3],80 mg/kg
same,amount found safe,"[4]; 6 months, humans older than 2 years",~250 mg/kg/day
same,tolerability,[4]; infusion rates 292 to 4375 mg/min,well-tolerated with no clinically relevant side effects or changes in renal biomarkers
same,solubility,[5],600 mg/mL
same,osmolality,"[6]; 20% solution, degree of substitution 6.5",785 mOsm/kg
same,concentration iso-osmotic with blood and extracellular fluid,[6]; according to the manufacturer,9.5-11.4%
"CC(O)COC[C@H]1O[C@@H]2O[C@H]3[C@H](O)[C@@H](O)[C@@H](O[C@H]4[C@H](O)[C@@H](O)[C@@H](O[C@H]5[C@H](O)[C@@H](O)[C@@H](O[C@H]6[C@H](O)[C@@H](O)[C@@H](O[C@H]7[C@H](O)[C@@H](O)[C@@H](O[C@H]8[C@H](O)[C@@H](O)[C@@H](O[C@H]1[C@H](O)[C@H]2O)O[C@@H]8COCC(C)O)O[C@@H]7COCC(C)O)O[C@@H]6COCC(C)O)O[C@@H]5COCC(C)O)O[C@@H]4COCC(C)O)O[C@@H]3COCC(C)O (stereo partly drawn) [HP-β-CD, hydroxypropyl-beta-cyclodextrin]",amount found safe,[4]; in vivo,~250 mg/kg/day
"CNC1(c2ccccc2Cl)CCCCC1=O (centres unmarked) [ketamine, 2-(2-chlorophenyl)-2-(methylamino)cyclohexanone]",Bioavailability (grade),[7]; Intramuscular,High
same,Bioavailability,[7]; Intranasal,25-50%
same,Bioavailability (grade),[7]; Intranasal,Low
same,Bioavailability,[7]; Intravenous,100%
same,Bioavailability (grade),[7]; Intravenous,Highest
same,Bioavailability,[7]; Oral,11-20%
same,Bioavailability (grade),[7]; Oral,Very Low
same,Bioavailability,[7]; Subcutaneous,>90%
same,Bioavailability (grade),[7]; Subcutaneous,High
same,Bioavailability,[7]; Sublingual,29%
same,Bioavailability (grade),[7]; Sublingual,Low
same,Metabolite Exposure,[8]; Intramuscular,Low
same,Metabolite Exposure,[8]; Intranasal,High
same,Metabolite Exposure,[8]; Intravenous,Low
same,Metabolite Exposure,[8]; Subcutaneous,Low
same,Metabolite Exposure,[8]; Sublingual,High
same,increase in exposure to undesirable inflammatory metabolites,[8]; oral dosing to reach equivalence to a short IV or IM treatment,up to 9 fold
same,increase in exposure to undesirable inflammatory metabolites,[8]; sublingual route,3 fold
same,Side Effects,[9]; Intramuscular,High
same,Side Effects,[9]; Intranasal,High
same,Side Effects,[9]; Intravenous,Moderate
same,Side Effects,[9]; Oral,Moderate
same,Side Effects,[9]; Subcutaneous,Low
same,Side Effects,[9]; Sublingual,Moderate
